This is an account of results in patent US9814704B2, “Substituted pyrrolo[2,3-b]pyridines as MLK inhibitors” (The University of Rochester, priority 2008, dated 2017).

The term IC50 denotes the concentration at which inhibition is half-maximal.

Series [1] has as its target MLK3 (Homo sapiens (Human), UniProt Q16584). Put plainly: Radiometric Filter Plate MLK3 Assay. In kind it is biochemical. To be noted: read-out: MK3 IC50. The protocol: Radiometric Filter Plate MLK3 Assay
After a twenty minute incubation, the reactions were washed through filter plates and read on a scintillation counter. Results are shown in Table 4 below, in which +++ indicates ≦0.1 μM, ++ indicates >0.1 μM and ≦1 μM, and + indicates >1 μM.

Series [2] can be described thus: Pharmacokinetic Evaluation in Mice. In kind it is in vivo. Details: unit not given here. To be noted: single intravenous (IV) injection at 10 mg/kg, CL57 BL/6 mice, brain homogenate. The protocol:
Pharmacokinetic Evaluation in Mice
Several compounds disclosed herein were evaluated in a standard murine pharmacokinetic model.
Compounds were dissolved in either 5% DMSO, 40% PEG400, and 55% saline (pH=8) or […], 40% PEG400, and 55% (20% HP-β-CD in deionized water; pH=8) to yield a nominal concentration of 2 mg/mL for intravenous administration. Compounds were administered via a single intravenous (IV) injection in CL57 BL/6 mice at 10 mg/kg in DMSO/PEG400 solution. Three mice in each group were used for blood and brain collection at each time point. Blood samples (300 μL) were collected via the retro-orbital vein predose and at 5 min, 0.25, 0.50, 1, 2, 4, 6, 8, and 24 hours postdose. Blood samples were placed into tubes containing sodium heparin and centrifuged under refrigerated conditions at 8000 rpm for 6 minutes to separate plasma from the samples. The brain of each animal was collected after the final blood collection. The whole tissue was harvested, excised and rinsed by saline, dried by filter paper, and then placed into one tube per tissue per animal. All samples were stored at −20° C. until bioanalysis.
Compound concentrations in plasma and brain homogenate were determined using a high performance liquid chromatography/mass spectrometry (HPLC/MS/MS) method (Agilent 1100 series HPLC, AB Inc. API4000 triple-quadrupole with an ESI interface and Analyst 1.4 software).
Results in the form of area under the time-versus-concentration curve (AUC) are given below in Table 5.

Where [3] appears, read: 200 ng (130 nM) MLK3, 1 μM inactive MKK7b, 2 μM cold ATP (Km), 33P ATP, twenty minute incubation.

Where two headings read alike, the source gives them in different places.

MLK3, sequence (Q16584 whole entry): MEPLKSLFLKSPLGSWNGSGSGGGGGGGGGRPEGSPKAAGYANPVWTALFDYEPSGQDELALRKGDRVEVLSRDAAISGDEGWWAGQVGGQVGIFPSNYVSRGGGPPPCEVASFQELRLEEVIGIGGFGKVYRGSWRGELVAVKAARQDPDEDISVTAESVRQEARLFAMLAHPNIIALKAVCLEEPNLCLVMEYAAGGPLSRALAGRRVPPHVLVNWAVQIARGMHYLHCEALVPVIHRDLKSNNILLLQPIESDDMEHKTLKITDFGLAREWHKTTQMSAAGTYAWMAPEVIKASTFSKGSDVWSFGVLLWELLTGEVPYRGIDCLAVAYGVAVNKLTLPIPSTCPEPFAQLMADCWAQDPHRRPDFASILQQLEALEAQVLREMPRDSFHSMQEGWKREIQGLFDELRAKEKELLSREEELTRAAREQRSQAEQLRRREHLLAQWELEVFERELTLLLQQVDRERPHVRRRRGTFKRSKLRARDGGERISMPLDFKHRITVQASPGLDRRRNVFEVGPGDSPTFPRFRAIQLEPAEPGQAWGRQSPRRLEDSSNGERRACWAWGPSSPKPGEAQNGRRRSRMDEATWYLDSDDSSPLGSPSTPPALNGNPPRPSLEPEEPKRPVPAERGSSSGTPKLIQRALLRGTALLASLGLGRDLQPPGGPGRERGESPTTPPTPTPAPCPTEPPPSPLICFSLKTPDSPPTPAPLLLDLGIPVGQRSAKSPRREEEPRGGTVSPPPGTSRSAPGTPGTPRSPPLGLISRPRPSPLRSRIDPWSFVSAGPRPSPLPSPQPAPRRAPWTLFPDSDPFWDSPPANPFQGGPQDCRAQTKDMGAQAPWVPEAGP

For the molecule `COc1cc(-c2cnc3[nH]cc(-c4ccc5[nH]ccc5c4)c3c2)cc(OC)c1OC` [Example 1, 3-(1H-indol-5-yl)-5-(3,4,5-trimethoxyphenyl)-1H-pyrrolo[2,3-b]pyridine], the IC50 in series [1] lay within 100 to 1000 nM. The “AUC Brain” value in series [2] is given as “+ (+ indicates ≧500)”.

Take `Nc1ccc(-c2cnc3[nH]cc(-c4ccc5[nH]ccc5c4)c3c2)cn1` [Example 4, 5-(3-(1H-indol-5-yl)-1H-pyrrolo[2,3-b]pyridin-5-yl)pyridin-2-amine]: the IC50 in series [1] (setting [3]) was under 100 nM. In series [2], the “AUC Brain” value is on record as “− (− indicates <500)”.

Consider `Nc1ncc(-c2cnc3[nH]cc(-c4ccc5[nH]ccc5c4)c3c2)cn1` [Example 9, 5-(3-(1H-indol-5-yl)-1H-pyrrolo[2,3-b]pyridin-5-yl)pyrimidin-2-amine], for which, in series [1] (setting [3]), the IC50 was under 100 nM. Besides, the “AUC Brain” value in series [2] is listed as “+ (+ indicates ≧500)”.

Consider `COc1cc(-c2cnc3[nH]cc(-c4cnc(N)nc4)c3c2)cc(OC)c1OC` [Example 17, 5-(5-(3,4,5-trimethoxyphenyl)-1H-pyrrolo[2,3-b]pyridin-3-yl)pyrimidin-2-amine], for which the IC50 in series [1] (setting [3]) is under 100 nM. Besides, the “AUC Brain” value in series [2] is given as “− (− indicates <500)”.

With `COc1cc(-c2cnc3[nH]cc(-c4ccc(N)nc4)c3c2)cc(OC)c1OC` [Example 18, 5-(5-(3,4,5-trimethoxyphenyl)-1H-pyrrolo[2,3-b]pyridin-3-yl)pyridin-2-amine], the half-inhibitory concentration (IC50) in series [1] (setting [3]) is under 100 nM. In series [2], the “AUC Brain” value is listed as “− (− indicates <500)”.

For `CN1CCN(Cc2ccc(-c3cnc4[nH]cc(-c5ccc6[nH]ccc6c5)c4c3)cc2)CC1` [Example 32, 3-(1H-indol-5-yl)-5-(4-((4-methylpiperazin-1-yl)methyl)phenyl)-1H-pyrrolo[2,3-b]pyridine], the IC50 in series [1] is under 100 nM. For the same molecule, the “AUC Brain” value in series [2] is listed as “+ (+ indicates ≧500)”.

In the case of `CN1CCN(Cc2ccc(-c3cnc4[nH]cc(-c5ccc(C(N)=O)cc5)c4c3)cc2)CC1` [Example 155, 4-{5-[4-(4-methyl-piperazin-1-ylmethyl)-phenyl]-1H-pyrrolo[2,3-b]pyridin-3-yl}-benzamide], in series [1], the IC50 lay in the range of 100 to 1000 nM.

For the molecule `CN1CCN(Cc2cccc(-c3cnc4[nH]cc(-c5ccc(C(N)=O)cc5)c4c3)c2)CC1` [Example 156, 4-{5-[3-(4-methyl-piperazin-1-ylmethyl)-phenyl]-1H-pyrrolo[2,3-b]pyridin-3-yl}-benzamide], the IC50 in series [1] (setting [3]) is under 100 nM.

As to `CC(=O)N1CCN(Cc2ccc(-c3cnc4[nH]cc(-c5ccc(C(N)=O)cc5)c4c3)cc2)CC1` [Example 157, 4-{5-[4-(4-acetyl-piperazin-1-ylmethyl)-phenyl]-1H-pyrrolo[2,3-b]pyridin-3-yl}-benzamide], in series [1] (setting [3]), the IC50 is under 100 nM.

For the molecule `CN1CCN(Cc2ccc(-c3cnc4[nH]cc(-c5ccc(C(N)=O)cc5)c4c3)cc2)CC1=O` [Example 158, 4-{5-[4-(4-methyl-3-oxo-piperazin-1-ylmethyl)-phenyl]-1H-pyrrolo[2,3-b]pyridin-3-yl}-benzamide], the IC50 in series [1] (setting [3]) was under 100 nM.

Consider `COc1cc(-c2cnc3[nH]cc(-c4ccc(CNC(C)=O)cc4)c3c2)cc(OC)c1OC` [Example 159, N-{4-[5-(3,4,5-Trimethoxy-phenyl)-1H-pyrrolo[2,3-b]pyridin-3-yl]-benzyl}-acetamide], for which, in series [1] (setting [3]), the IC50 was under 100 nM.

For the molecule `COc1cc(-c2cnc3[nH]cc(-c4ccc(CNC(=O)Cc5ccccc5)cc4)c3c2)cc(OC)c1OC` [Example 160, 2-phenyl-N-{4-[5-(3,4,5-trimethoxy-phenyl)-1H-pyrrolo[2,3-b]pyridin-3-yl]-benzyl}-acetamide], in series [1], the IC50 fell in the range of 100 to 1000 nM.

In the case of `COc1cc(-c2cnc3[nH]cc(-c4ccc(CNC(=O)CCc5ccccc5)cc4)c3c2)cc(OC)c1OC` [Example 161, 3-phenyl-N-{4-[5-(3,4,5-trimethoxy-phenyl)-1H-pyrrolo[2,3-b]pyridin-3-yl]-benzyl}-propionamide], in series [1], the IC50 lay within 100 to 1000 nM.

`CN1CCN(Cc2ccc(-c3c[nH]c4ncc(-c5ccc(C(N)=O)cc5)cc34)cc2)CC1` [Example 162, 4-{3-[4-(4-methyl-piperazin-1-ylmethyl)-phenyl]-1H-pyrrolo[2,3-b]pyridin-5-yl}-benzamide]: the IC50 in series [1] (setting [3]) was under 100 nM.

With `CN1CCN(Cc2ccc(-c3c[nH]c4ncc(-c5ccc6[nH]ccc6c5)cc34)cc2)CC1` [Example 163, 5-(1H-indol-5-yl)-3-[4-(4-methyl-piperazin-1-ylmethyl)-phenyl]-1H-pyrrolo[2,3-b]pyridine], the IC50 in series [1] (setting [3]) was over 1000 nM.

For `CNC(=O)c1ccc(-c2c[nH]c3ncc(-c4cc(OC)c(OC)c(OC)c4)cc23)cc1` [Example 164, N-methyl-4-[5-(3,4,5-trimethoxy-phenyl)-1H-pyrrolo[2,3-b]pyridin-3-yl]-benzamide], the IC50 in series [1] (setting [3]) is over 1000 nM.

Regarding `CNC(=O)c1ccc(-c2c[nH]c3ncc(-c4ccc(CN5CCN(C)CC5)cc4)cc23)cc1` [Example 165, N-methyl-4-{5-[4-(4-methyl-piperazin-1-ylmethyl)-phenyl]-1H-pyrrolo[2,3-b]pyridin-3-yl}-benzamide], the IC50 in series [1] (setting [3]) was under 100 nM.

With `COc1cc(-c2cnc3[nH]cc(-c4ccc(F)cc4)c3c2)cc(OC)c1OC` [Example 166, 3-(4-fluoro-phenyl)-5-(3,4,5-trimethoxy-phenyl)-1H-pyrrolo[2,3-b]pyridine], the IC50 in series [1] fell in the range of 100 to 1000 nM.

Turning to `COc1cc(-c2cnc3[nH]cc(-c4ccc(-c5ncc[nH]5)cc4)c3c2)cc(OC)c1OC` [Example 167, 3-[4-(1H-imidazol-2-yl)-phenyl]-5-(3,4,5-trimethoxy-phenyl)-1H-pyrrolo[2,3-b]pyridine], the IC50 in series [1] is 100 to 1000 nM.
